Data set [1] concerns HeLa 654 cells. In words: HeLa-654 eGFP assay (corrective splicing / exon skipping by PMO IVS2-654). Conditions: eGFP fluorescence of PMO-peptide conjugate relative to unconjugated PMO; 5 μM, 22 h. The class given is cell-based, human. Here is the method:
With the 36 constructs synthesized, the ability to modulate PMO activity using the modified HeLa cell assay was tested. The HeLa-654 cells were stably transfected to express a nonfluorescent eGFP protein. The eGFP gene is interrupted by a mutant intron from the human β-globin gene (IVS2-654). The insertion alters pre-mRNA splicing to cause retention of a fragment in the mature mRNA that results in a nonfluorescent protein. PMO IVS2-654 base-pairs with the B-globin insertion, modifies mRNA splicing, and thereby leads to expression of fluorescent eGFP.
For treatment, the crude reaction mixture was diluted to 5 μM in media. The concentration of the modular construct was calculated based on the original concentration of the module 1-2 conjugate mixed in the reaction. Using media containing 10% fetal bovine serum (FBS), the cells were treated with each construct for 22 hours, after which the cellular fluorescence was measured by flow cytometry.
From the lists of hundreds of predicted peptide sequences, twenty candidates were selected that varied in length, charge, and predicted activity to synthesize and test. Just as with the PMO-peptide library, the PMO-Mach constructs were first tested for PMO delivery in the HeLa 654 assay at 5 μM in complete media for 22 hours and analyzed by flow cytometry (FIG. 14). Experiments were conducted using three technical triplicates and two or three biological replicates.
(§1) HeLa 654 cells were maintained in MEM supplemented with 10% (v/v) fetal bovine serum (FBS) and 1% (v/v) penicillin-streptomycin at 37° C. and 5% CO2. Eighteen hours prior to treatment, the cells were plated at a density of 5,000 cells per well in a 96-well plate in MEM supplemented with 10% FBS and 1% penicillin-streptomycin. The day of the experiment, the 384 well plate containing the crude reaction mixtures in DMSO was diluted to 100 μM by the addition of 16.8 μL of PBS to the 3.2 μL reaction mixture. Then, each construct was diluted to 5 μM in MEM supplemented with 10% FBS and 1% penicillin-streptomycin. Cells were incubated with each conjugate at a concentration of 5 μM for 22 hours at 37° C. and 5% CO2. Next, the treatment media was aspirated the cells were incubated with Trypsin-EDTA 0.25% for 15 min at 37° C. and 5% CO2, washed 1× with PBS, and resuspended in PBS with 2% FBS and 2 μg/mL propidium iodide. Flow cytometry analysis was carried out on a BD LSRII flow cytometer. Gates were applied to the data to ensure that cells that were highly positive for propidium iodide or had forward/side scatter readings that were sufficiently different from the main cell population were excluded. Each sample was capped at 5,000 gated events.
Analysis was conducted using Graphpad Prism 7. For each sample, the mean fluorescence intensity and the number of gated cells was measured (FIGS. 8 and 9) and the intensity multiplied by the cell number was calculated (FIG. 7).

Data set [2] deals with HeLa 654 cells. Put plainly: Cytotoxicity by gated cell count and propidium iodide staining in flow cytometry. Format: cell-based, human. Conditions: at the concentrations tested in dose-response, 22 h.
Excerpt: The different modules led to several noticeable trends in the level of cellular fluorescence (FIG. 6). When module 2 was DPV6, the overall construct consistently led to high fluorescence, regardless of which peptides were placed in module 3 and 4. However, when either pVEC or TP10 was placed in module 2, minor cellular fluorescence was observed. A gated cell count was used during flow cytometry as an indirect read-out to control for the toxicity of the compounds. Highly toxic compounds led to a reduction in overall cell count and non-viable cells were gated out based upon propidium iodide staining. In this experiment, it was observed that when the module 3 peptide was the nuclear localization sequence KRVK, lower cell counts were consistently observed.
In the same format as described above, HeLa 654 cells were treated with varying concentrations of Mach 2, 3, 4, and 7 for 22 hours and analyzed by flow cytometry.
as §1
(In general: Flow cytometry measures light scatter and fluorescence of single cells or particles in a stream.)

For the molecule `CSCC[C@H](NC(=O)[C@H](CCCCN)NC(=O)[C@H](CCCCN)NC(=O)[C@@H]1CCCN1C(=O)[C@H](CCC(N)=O)NC(=O)[C@@H]1CCCN1C(=O)[C@@H](NC(=O)[C@H](CCCCN)NC(=O)[C@H](CCCCN)NC(=O)[C@H](CCCCN)NC(=O)[C@@H]1CCCN1C(=O)[C@H](Cc1c[nH]c2ccccc12)NC(=O)[C@H](CCCNC(=N)N)NC(=O)[C@H](Cc1c[nH]cn1)NC(=O)[C@H](CCCCN)NC(=O)[C@H](CCCCN)NC(=O)[C@H](CCCCN)NC(=O)[C@H](CC(N)=O)NC(=O)[C@H](CCC(N)=O)NC(=O)[C@H](CCCCN)NC(=O)[C@H](CCCCN)NC(=O)CNC(=O)[C@H](CCCCN)NC(=O)[C@H](CCCCN)NC(=O)CCCCn1nnc2c1-c1ccccc1N(C(=O)CCCCC(=O)N1C[C@@H](COP(=O)(N(C)C)N3C[C@@H](COP(=O)(N(C)C)N4C[C@@H](COP(=O)(N(C)C)N5C[C@@H](COP(=O)(N(C)C)N6C[C@@H](COP(=O)(N(C)C)N7C[C@@H](COP(=O)(N(C)C)N8C[C@@H](COP(=O)(N(C)C)N9C[C@@H](COP(=O)(N(C)C)N%10C[C@@H](COP(=O)(N(C)C)N%11C[C@@H](COP(=O)(N(C)C)N%12C[C@@H](COP(=O)(N(C)C)N%13C[C@@H](COP(=O)(N(C)C)N%14C[C@@H](COP(=O)(N(C)C)N%15C[C@@H](COP(=O)(N(C)C)N%16C[C@@H](COP(=O)(N(C)C)N%17C[C@@H](COP(=O)(N(C)C)N%18C[C@@H](COP(=O)(N(C)C)N%19C[C@@H](COP(=O)(N(C)C)N%20CCN(C(=O)OCCOCCOCCO)CC%20)O[C@@H](n%20cnc%21c(=O)[nH]c(N)nc%21%20)C%19)O[C@@H](n%19ccc(N)nc%19=O)C%18)O[C@@H](n%18cc(C)c(=O)[nH]c%18=O)C%17)O[C@@H](n%17cnc%18c(N)ncnc%18%17)C%16)O[C@@H](n%16cc(C)c(=O)[nH]c%16=O)C%15)O[C@@H](n%15cc(C)c(=O)[nH]c%15=O)C%14)O[C@@H](n%14cnc%15c(N)ncnc%15%14)C%13)O[C@@H](n%13ccc(N)nc%13=O)C%12)O[C@@H](n%12ccc(N)nc%12=O)C%11)O[C@@H](n%11cc(C)c(=O)[nH]c%11=O)C%10)O[C@@H](n%10cc(C)c(=O)[nH]c%10=O)C9)O[C@@H](n9cnc%10c(N)ncnc%109)C8)O[C@@H](n8cnc9c(N)ncnc98)C7)O[C@@H](n7ccc(N)nc7=O)C6)O[C@@H](n6ccc(N)nc6=O)C5)O[C@@H](n5ccc(N)nc5=O)C4)O[C@@H](n4cnc5c(N)ncnc54)C3)O[C@@H](n3cnc4c(=O)[nH]c(N)nc43)C1)Cc1ccccc1-2)C(C)C)C(=O)N[C@@H](Cc1ccccc1)C(=O)N[C@@H](CCCCN)C(=O)N[C@@H](CCC(N)=O)C(=O)NCC(=O)N[C@@H](C)C(=O)NCCC(=O)NCCCCCC(=O)N[C@@H](CCCNC(=N)N)C(=O)NCCCCCC(N)=O` (stereo partly shown) [MACH 4], the “FOLD OVER PMO” value in data set [1] is on record as 25. In addition, in data set [2], the “cytotoxicity as determined by cell count and PI staining” value is reported as “no cytotoxicity”.
For `CSCC[C@H](NC(=O)[C@H](CCCCN)NC(=O)[C@H](CC(C)C)NC(=O)[C@H](CC(N)=O)NC(=O)[C@H](CC(N)=O)NC(=O)[C@H](CCCCN)NC(=O)[C@H](CC(C)C)NC(=O)[C@H](CC(N)=O)NC(=O)[C@H](CCCCN)NC(=O)[C@H](CCCCN)NC(=O)[C@H](CCCCN)NC(=O)[C@H](C)NC(=O)[C@H](CC(N)=O)NC(=O)[C@H](CCCNC(=N)N)NC(=O)[C@H](CC(C)C)NC(=O)[C@@H]1CCCN1C(=O)[C@@H]1CCCN1C(=O)CCCCn1nnc2c1-c1ccccc1N(C(=O)CCCCC(=O)N1C[C@@H](COP(=O)(N(C)C)N3C[C@@H](COP(=O)(N(C)C)N4C[C@@H](COP(=O)(N(C)C)N5C[C@@H](COP(=O)(N(C)C)N6C[C@@H](COP(=O)(N(C)C)N7C[C@@H](COP(=O)(N(C)C)N8C[C@@H](COP(=O)(N(C)C)N9C[C@@H](COP(=O)(N(C)C)N%10C[C@@H](COP(=O)(N(C)C)N%11C[C@@H](COP(=O)(N(C)C)N%12C[C@@H](COP(=O)(N(C)C)N%13C[C@@H](COP(=O)(N(C)C)N%14C[C@@H](COP(=O)(N(C)C)N%15C[C@@H](COP(=O)(N(C)C)N%16C[C@@H](COP(=O)(N(C)C)N%17C[C@@H](COP(=O)(N(C)C)N%18C[C@@H](COP(=O)(N(C)C)N%19C[C@@H](COP(=O)(N(C)C)N%20CCN(C(=O)OCCOCCOCCO)CC%20)O[C@@H](n%20cnc%21c(=O)[nH]c(N)nc%21%20)C%19)O[C@@H](n%19ccc(N)nc%19=O)C%18)O[C@@H](n%18cc(C)c(=O)[nH]c%18=O)C%17)O[C@@H](n%17cnc%18c(N)ncnc%18%17)C%16)O[C@@H](n%16cc(C)c(=O)[nH]c%16=O)C%15)O[C@@H](n%15cc(C)c(=O)[nH]c%15=O)C%14)O[C@@H](n%14cnc%15c(N)ncnc%15%14)C%13)O[C@@H](n%13ccc(N)nc%13=O)C%12)O[C@@H](n%12ccc(N)nc%12=O)C%11)O[C@@H](n%11cc(C)c(=O)[nH]c%11=O)C%10)O[C@@H](n%10cc(C)c(=O)[nH]c%10=O)C9)O[C@@H](n9cnc%10c(N)ncnc%109)C8)O[C@@H](n8cnc9c(N)ncnc98)C7)O[C@@H](n7ccc(N)nc7=O)C6)O[C@@H](n6ccc(N)nc6=O)C5)O[C@@H](n5ccc(N)nc5=O)C4)O[C@@H](n4cnc5c(N)ncnc54)C3)O[C@@H](n3cnc4c(=O)[nH]c(N)nc43)C1)Cc1ccccc1-2)C(=O)N[C@@H](CC(=O)O)C(=O)N1CCC[C@H]1C(=O)N[C@@H](CCCCN)C(=O)N[C@@H](Cc1ccccc1)C(=O)N[C@H](C(=O)N[C@@H](CCCCN)C(=O)N[C@@H](CCCCN)C(=O)N[C@H](C(=O)N[C@@H](CCCCN)C(=O)N[C@@H](CCC(N)=O)C(=O)NCC(=O)N[C@@H](C)C(=O)N[C@@H](CC(C)C)C(=O)N[C@@H](CCCCN)C(=O)N[C@@H](CC(C)C)C(=O)N[C@@H](CC(N)=O)C(=O)N[C@@H](CCCNC(=N)N)C(=O)N[C@@H](CCCNC(=N)N)C(=O)N[C@@H](CCCCN)C(=O)N[C@@H](CCCCN)C(=O)N[C@@H](CC(N)=O)C(=O)N[C@@H](CCCNC(=N)N)C(=O)NCC(=O)N1CCC[C@H]1C(=O)N[C@@H](CCCCN)C(=O)NCC(=O)N1CCC[C@H]1C(=O)NCCCCCC(=O)N[C@@H](CCCCN)C(=O)N[C@@H](Cc1c[nH]cn1)C(=O)N[C@@H](Cc1c[nH]c2ccccc12)C(=O)N[C@H](C(=O)N[C@H](C(N)=O)[C@@H](C)O)[C@@H](C)O)C(C)C)[C@@H](C)O` (stereo partly shown) [MACH 2], in that order: 27 and “no cytotoxicity”.

Source of the values: patent publication US20250228954A1, “Designing Antisense Oligonucleotide Delivery Peptides by Interpretable Machine Learning” (Sarepta Therapeutics, Inc., priority 2020, published 2025).
